The values below come from PubChem BioAssay (NCI).

Some test systems named below: A498 renal; SR leukemia; HOP-62 NSCLC; SN12C renal; MCF7 breast; MALME-3M melanoma; SF-268 CNS; HCC-2998 colon; LXFL 529 NSCLC; HOP-18 NSCLC.
Assay in all cases: NCI-60 cell line screen, 48 h

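Each compound was tested at five concentrations against cells in 96-well plates for 48 hours. Abbreviation: GI50, concentration required for 50% inhibition of growth. Definition used: TGI = concentration required for complete inhibition of growth.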 A value given as a limit tells only on which side of the number the result lay.

For the compound `COc1ccc(/C=N/C2=C(C#N)C(c3ccccc3)c3ccc4ccccc4c3O2)cc1` (stereo not drawn), the GI50 was 0.213 µM in the assay on A498 renal; 0.304 µM with SR leukemia; 0.373 µM with HOP-62 NSCLC; 0.68 µM in the assay on SN12C renal; 0.425 µM in the assay with MCF7 breast; 1.65 µM in the assay with SF-268 CNS. In addition, in the assay with HCC-2998 colon, the GI50 is 0.92 µM. Moreover, the TGI was 0.785 µM in the assay with A498 renal; over 75.8 µM in the assay on SR leukemia; over 100 µM in the assay on HOP-62 NSCLC; over 100 µM in the assay on SN12C renal; over 100 µM in the assay on MCF7 breast; over 100 µM with MALME-3M melanoma. Further, the TGI in the assay with SF-268 CNS is over 100 µM; with HCC-2998 colon it was over 42 µM.
Take `O=c1c(Br)ccc(Br)cc1Br`: the GI50 was 14.7 µM with A498 renal; 0.367 µM in the assay with SR leukemia; 2.38 µM in the assay on HOP-62 NSCLC; 2.11 µM in the assay on SN12C renal; 3.81 µM in the assay on MCF7 breast; 1.85 µM with MALME-3M melanoma. Besides, the results for the GI50 with SF-268 CNS and in the assay on HCC-2998 colon were 2.62 µM and 3.07 µM, respectively. Also, the TGI in the assay with A498 renal was determined as 28.5 µM; in the assay with SR leukemia it was 1.48 µM; with HOP-62 NSCLC, 5.58 µM; in the assay on SN12C renal it was 4.68 µM; in the assay with MCF7 breast it was 77.6 µM; with MALME-3M melanoma, 4.05 µM. The TGI with SF-268 CNS is 6.57 µM; in the assay on HCC-2998 colon, 8.6 µM.
`Cn1cc(C2=C(c3cn(CCCN/C(N)=N\[N+](=O)[O-])c4ccccc34)C(=O)NC2=O)c2ccccc21`: the GI50 with A498 renal is 2.85 µM; with SR leukemia, 0.898 µM; in the assay on HOP-62 NSCLC, 3.89 µM; in the assay with SN12C renal it was 2.65 µM; with MCF7 breast it was 1.15 µM; in the assay on MALME-3M melanoma, 6.38 µM. The values for the GI50 with SF-268 CNS and with HCC-2998 colon were 3.11 µM and 6.72 µM, respectively. In addition, the TGI in the assay with A498 renal is 9.6 µM; in the assay on SR leukemia, 3.96 µM; with HOP-62 NSCLC, over 16.6 µM; in the assay on SN12C renal it was 16.6 µM; with MCF7 breast, over 22.6 µM; with MALME-3M melanoma it was 15.9 µM. The TGI came out at 11.6 µM in the assay with SF-268 CNS and 20.4 µM in the assay on HCC-2998 colon.
For the compound `CC(NC(=O)C1(N)CCCC1)C(=O)O` (stereo not drawn), the TGI in the assay on A498 renal, in the assay with SR leukemia, in the assay with HOP-62 NSCLC, in the assay with SN12C renal, in the assay on MCF7 breast and in the assay with MALME-3M melanoma was over 100 µM each time. For the same compound, the TGI with SF-268 CNS and in the assay on HCC-2998 colon was over 100 µM in each case.
As for `O=C(NCCOCCO)c1ccc(O)cc1`, the TGI in the assay on A498 renal, with LXFL 529 NSCLC, in the assay with HOP-62 NSCLC, in the assay with HOP-18 NSCLC, with SN12C renal and in the assay on SF-268 CNS was over 100 µM in each case.
`COc1ccc(-c2nn(C(=O)c3cc(OC)c(OC)c(OC)c3)c3cc(N)ccc23)cc1`: the GI50 is under 0.01 µM in the assay with A498 renal; under 0.01 µM with SR leukemia; under 0.0153 µM in the assay on HOP-62 NSCLC; under 0.0162 µM in the assay on SN12C renal; 0.0226 µM in the assay with MCF7 breast; 2.03 µM with MALME-3M melanoma. Moreover, the figures for the GI50 with SF-268 CNS and in the assay with HCC-2998 colon were under 0.0148 µM and 0.0349 µM, respectively. The TGI is under 0.0171 µM with A498 renal; 6.33 µM with HOP-62 NSCLC; 10.8 µM in the assay with SN12C renal; 2.19 µM in the assay with MCF7 breast; 14.8 µM with MALME-3M melanoma; 4.43 µM with SF-268 CNS. Moreover, the TGI in the assay on HCC-2998 colon turned out to be 3.79 µM.
As to `O=c1cc(/C=C/c2ccccc2)c2ccc(O/C(=C\c3ccccc3)c3nc4ccccc4c(=O)o3)cc2o1`, the TGI with A498 renal is over 100 µM; with LXFL 529 NSCLC, 63.9 µM; with HOP-62 NSCLC, 84.7 µM; with SN12C renal, over 100 µM; in the assay on MALME-3M melanoma it was over 100 µM; in the assay on SF-268 CNS, 35.8 µM. Further, the TGI with HCC-2998 colon was over 100 µM.
Consider `NCCCSCC(=O)O`, for which the TGI with LXFL 529 NSCLC, with SN12C renal, with MALME-3M melanoma, with SF-268 CNS and in the assay on HCC-2998 colon was over 100 µM each time.
For the compound `CC(=O)Oc1cc(OC(C)=O)c(OC(C)=O)c2c1CC1C(=O)C3(CCc4ccccc43)C(=O)C1C2` (stereo not drawn), the TGI worked out at 28 µM with LXFL 529 NSCLC; 50.8 µM in the assay with HOP-62 NSCLC; 43.6 µM with HOP-18 NSCLC; 31 µM in the assay on SN12C renal; 20.1 µM in the assay with MALME-3M melanoma; 25.2 µM with HCC-2998 colon.
For `C=C1[C@@H]2CCC(C)(C)[C@H]1CCC(=O)[C@@H]2C(=O)OC`, the TGI with A498 renal, in the assay with SR leukemia, with LXFL 529 NSCLC, with HOP-62 NSCLC, in the assay on SN12C renal and with MALME-3M melanoma was over 100 µM in each case. Further, the TGI with SF-268 CNS and in the assay with HCC-2998 colon was over 100 µM throughout.
Turning to `CCN(CC)[C@@H]1c2cc3c(cc2C(c2cc(OC)c(O)c(OC)c2)C2C(=O)CO[C@@H]21)OCO3` (stereo partly drawn), the TGI in the assay with A498 renal, in the assay on SR leukemia, in the assay on LXFL 529 NSCLC, in the assay on HOP-62 NSCLC, with SN12C renal and in the assay on MALME-3M melanoma was over 100 µM in each case. The TGI in the assay on SF-268 CNS and in the assay on HCC-2998 colon was over 100 µM each time.
With `O=C1OC(/C=C/c2ccccc2)C(=O)C1=O` (stereo not drawn), the TGI in the assay on A498 renal, with LXFL 529 NSCLC, in the assay with HOP-62 NSCLC, in the assay with HOP-18 NSCLC, with MALME-3M melanoma and in the assay with SF-268 CNS was over 100 µM throughout. Further, the TGI in the assay on HCC-2998 colon was over 100 µM.
For `O=c1c(-c2nc3ccccc3[nH]2)cc2ccccc2n1Cc1cn(Cc2ccc(F)cc2)nn1`, the GI50 in the assay with A498 renal was 0.127 µM; in the assay with SR leukemia, 0.0732 µM; in the assay on HOP-62 NSCLC, 0.222 µM; in the assay with SN12C renal it was 0.203 µM; in the assay with MCF7 breast, 0.0329 µM; in the assay with MALME-3M melanoma, 0.213 µM. The GI50 was 0.259 µM with SF-268 CNS and 0.203 µM in the assay with HCC-2998 colon. Further, the TGI in the assay on A498 renal was 0.716 µM; in the assay on SR leukemia, over 100 µM; in the assay with HOP-62 NSCLC, 9.51 µM; with SN12C renal, over 100 µM; with MCF7 breast, over 55.1 µM; with MALME-3M melanoma, 66.4 µM. In addition, the TGI in the assay on SF-268 CNS was 57.6 µM; with HCC-2998 colon, 3.31 µM.
